Laboratory results reported in US11673891B2, “Imidazopyrimidine compounds and uses thereof” (Dana-Farber Cancer Institute, Inc., priority 2017, dated 2023).

Legend:
Format in all cases: cell-based
[1] = test system: Human adult and elderly PBMCs; assay: Adult and elderly PBMCs stimulated with confirmed hit compounds, TNF and IL-1β by ELISA; conditions: 18 hours, N=5
Description: (FIG. 2A) Human adult (top) and elderly (bottom) PBMCs stimulated for 18 hours with the TLR7/8 agonist R848 and 24 confirmed hit compounds from TNF AlphaLISA screen. TNF (left panels) and IL-1β (right panels) were assessed in cell-free supernatants by ELISA. Data are shown as median and interquartile range of N=5.
(§1) ELISAs and Multiplex-Analyte Assays. Supernatants derived from human PBMCs and DC stimulations were assayed by ELISA for TNF (ThermoFisher Scientific; Waltham, Mass., USA). Cytokine and chemokine expression profiles (e.g., IFNγ, IL-9, IL-10, IL-12 (p70), IL-13, IL-1β, IL-23, IL-27, IL-28A, IL-33, IL-6, MIP-3α/CCL20, and TNF) in cell culture supernatants were measured using a customized Milliplex® Human Th17 Magnetic Bead Panel according to the manufacturer's instructions (Millipore, Chicago, Ill., USA). Assays were read and analyzed on the Luminex® 100/200™ System and xPOTENT® software (Luminex, Austin, Tex.). A minimum threshold was set at the minimum detectable concentration for each individual assay, defined as three standard deviations above the mean background.

PBMCs = assay: TNF AlphaLISA screen on primary human PBMCs; conditions: robust Z score >2 in both duplicates and at least 2 of 3 donors
Description: TNF AlphaLISA screen was comprised of three parts: 1) human peripheral blood collection and PBMC isolation—human adult peripheral blood was collected with written consent. PBMCs were isolated from the blood using Ficoll density gradient. PBMCs were stored at 50 million cells per vial in 1 ml RPMI containing 20% autologous plasma and 10% DMSO at −80° C. until use; 2) TNFαLISA Assay—On Day 1, PBMCs were thawed in 37° C. water bath for 3 min and washed twice with PBS. Trypan blue viable cell count was obtained and cells were resuspended to viable 6.67×10^5 cells/ml in DMEM with 10% autologous plasma. Cells were dispensed in 30 μl per well in Corning 2712 black 384-well cell culture plates (final concentration was 20,000 cells/well). Controls were added to cells manually and the test compounds were added by robotic pin transfer. Plates were then incubated at 37° C./5% CO2 humidity-controlled incubator for 18 hours. On Day 2 of the assay, plates were centrifuged and 2 μl supernatants were collected into Perkin Elmer Alpha plates. Perkin Elmer Human TNFα kits (cat #AL208F) were used to detect the presence of TNFα in supernatants.
TNFαLISA Assay. Human adult peripheral blood was collected according to approved protocols. […] Viability was assessed by trypan blue staining and cells were then resuspended to 6.67×10^5 viable cells/mL in DMEM with 10% autologous plasma. […]

human adult PBMCs [2] = assay: 9-plex multiplex cytokine assay after stimulation of adult PBMCs; conditions: 0.1 μM-33 μM, 18 hours, 10% autologous plasma, fold-change over unstimulated control, N=4
Description: Shown is a 9-plex multiplex cytokine assay after stimulation of adult peripheral blood mononuclear cells (PBMCs) with compound 037 or R848 at four different concentrations (0.1 μM-33 μM). Radar plots of immune polarizing cytokine production from human adult PBMCs stimulated for 18 hours in 10% autologous plasma, represented as fold-change over RPMI unstimulated control (N=4).
as §1

human adult PBMCs [3] = assay: TNF production by ELISA after stimulation of human adult PBMCs; conditions: 33 μM, 18 hours
Description: Table 1. Activity of Exemplary Imidazopyrimidine Compounds on Stimulating TNF Production in PBMCs as Compared to Compound R848 Table 1 provides the activity of exemplary compounds on stimulating TNF production in PBMCs as compared to the benchmark compound R848. Specifically, TNF production was measured by ELISA after stimulation of adult PBMCs with compound 037 analog family or the compound R848 at 33 μM for 18 hours. Analogs are ranked top to bottom by median percentage TNF production (TNF %) as compared to R848 (N=3-5). The compounds have been classified in the following categories according to TNF %: high activity—class A: TNF %>15%; medium activity—class B: 1%<TNF %≤15%; low activity—class C: TNF %≤1%.
as §1
PBMCs were isolated from blood using a Ficoll density gradient. PBMCs either used fresh or were stored at 5×10^7 cells per vial in 1 mL RPMI containing 20% autologous plasma and 10% DMSO at −80° C. until use. Stimulation plates were prepared by transferring 0.66 μl of DMSO-dissolved compounds (10 mM) to each well of a round bottom 96-well plate. PBMCs isolated from human adult donors were resuspended at a concentration of 10^5 cells/200 μl of RPMI supplemented with 10% of platelet-poor plasma. 200 μl of the cell suspension were transferred to each well resulting in a final compound concentration of […]. After about 18 hours of incubation (37° C., 5% CO2), plates were spun down (500×g, room temperature, 5 minutes) and supernatants were harvested for further analysis.

CCC(C(=O)Nc1cc(-c2cn3cccnc3n2)ccc1C)c1ccccc1 (stereo not shown) [Compound 37]
TNF and IL-1β induction from adult and elderly PBMCs (in words) [1]: induce TNF and IL-1β from adult and elderly PBMCs
Hit in PBMC TNFαLISA screen (in words) (PBMCs): identified in the PBMC TNFαLISA screen
Cytokine response, 9-plex multiplex (in words) (human adult PBMCs [2]): induced a broad concentration-dependent cytokine response
TNF (Median) (human adult PBMCs [3]; adult PBMCs, ELISA, median, N=3-5, unit not given (FIG. 6B/7B legends: TNF concentration in ng/ml)): 2.403
Activity class (human adult PBMCs [3]; class according to TNF % as compared to R848, adult PBMCs): A (high activity—class A: TNF %>15%)
Production of human TNF by PBMCs (in words) (human adult PBMCs [3]; human adult PBMCs, ELISA): induces robust production of TNF-α
TNF % (Median) (human adult PBMCs [3]; median percentage TNF production as compared to R848, adult PBMCs, N=3-5): 69.79%
